# Values of other authors in patent US20050197398A1, “Therapeutic agent for hepatic disease” (AJINOMOTO CO., INC, priority 2002, published 2005).
# Columns and labels:
# [1] = tested on: rat primary culture hepatocytes; settings: D-galactosamine loading
# [2] = tested on: D-galactosamine-induced liver failure rat model
smiles,measurement,setting,value
C[C@H](N)C(=O)O [alanine],lactic dehydrogenase extracellular overflow,[1],suppress an increase of lactic dehydrogenase extracellular overflow
same,liver failure,[2],improves liver failure
same,level of ATP,[2]; ATP becomes lower in liver failure,raises the level of ATP
